Reference: US20230293526A1, “METHOD FOR TREATING CANCER WITH A REVERSE TRANSCRIPTASE INHIBITOR” (PrimeFour Therapeutics, Inc., priority 2020, published 2023)

Tests used:
human LINE-1 = experiment: Human LINE-1 (L1) retrotransposition dual-luciferase reporter assay in HeLa cells; type: cell-based; conditions: Homo sapiens, HeLa, 72 h, read-out: Human LINE-1 IC50 (Human L1 activity inhibition)
In short: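 Compound dilution series (final DMSO 0.2%) added right after transfecting HeLa cells with the pYX017 L1 dual-luciferase reporter; 72 h culture at 37 °C, 5% CO2, triplicates. IC50 fitted by non-linear logistic regression to firefly-to-Renilla luminescence ratio (×10,000).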

cancer cell lines = experiment: Cancer cell proliferation activity of representative nucleosides, CellTiterGlo 72 h (Example 7, Tables 8 and 9); type: cell-based; conditions: 72 h
In short: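 Percent viability was set against 0.1% DMSO (100%) and 10 μM staurosporine (0%), with signal from CellTiterGlo luminescence. Dose-response treatment began one day after seeding and lasted 72 h at 37° C under 5% or 10% CO2, with 0.1% final DMSO.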

- IC50 (human LINE-1): 0.0036 µM
- IC50 (cancer cell lines; 72 h, 5637, bladder): 3.52 µM
- IC50 (cancer cell lines; CLS439, bladder): > 50 µM
- IC50 (cancer cell lines; HS729, muscle): 3.42 µM
- IC50 (cancer cell lines; J82, bladder): > 50 µM
- IC50 (cancer cell lines; JAR, placenta): > 50 µM
- IC50 (cancer cell lines; MT3, breast): 1.62 µM
- IC50 (cancer cell lines; PC3, prostate): 3.02 µM
- IC50 (cancer cell lines; RD, muscle): 3.39 µM
- IC50 (cancer cell lines; T24, bladder): > 50 µM
- IC50 (cancer cell lines; Homo sapiens, 22Rv1, 72 h, 22RV1, prostate): > 50 µM
- IC50 (cancer cell lines; Homo sapiens, 786-0, 72 h, 786O, kidney): > 50 µM
- IC50 (cancer cell lines; Homo sapiens, A204, 72 h, A204, muscle): 1.58 µM
- IC50 (cancer cell lines; Homo sapiens, A549, 72 h, A549, lung): 3.25 µM
- IC50 (cancer cell lines; Homo sapiens, A673, 72 h, A673, bone): > 50 µM
- IC50 (cancer cell lines; Homo sapiens, A2780, 72 h, A2780, ovary): > 50 µM
- IC50 (cancer cell lines; Homo sapiens, A-375, 72 h, A375, skin): 2.34 µM
- IC50 (cancer cell lines; Homo sapiens, A-431, 72 h, A431, skin): > 50 µM
- IC50 (cancer cell lines; Homo sapiens, ACHN, kidney): 5.89 µM
- IC50 (cancer cell lines; Homo sapiens, ASPC1, 72 h, ASPC1, pancreas): 5.31 µM
- IC50 (cancer cell lines; Homo sapiens, BT-20, 72 h, BT20, breast): > 50 µM
- IC50 (cancer cell lines; Homo sapiens, BXPC-3, 72 h, BXPC3, pancreas): 3.54 µM
- IC50 (cancer cell lines; Homo sapiens, C-33-A, C33A, endometrial): 3.7 µM
- IC50 (cancer cell lines; Homo sapiens, CAKI-1, 72 h, CAKI1, kidney): 5.33 µM
- IC50 (cancer cell lines; Homo sapiens, COLO 205, 72 h, COLO205, colon): 1.8 µM
- IC50 (cancer cell lines; Homo sapiens, COLO-678, 72 h, COLO678, colon): > 50 µM
- IC50 (cancer cell lines; Homo sapiens, Ca-Ski, CASKI, endometrial): > 50 µM
- IC50 (cancer cell lines; Homo sapiens, Caco-2, 72 h, CACO2, colon): > 50 µM
- IC50 (cancer cell lines; Homo sapiens, Calu-6, 72 h, CALU6, lung): 6.13 µM
- IC50 (cancer cell lines; Homo sapiens, DLD-1, 72 h, DLD1, colon): > 50 µM
- IC50 (cancer cell lines; Homo sapiens, DU-145, 72 h, DU145, prostate): 6.33 µM
- IC50 (cancer cell lines; Homo sapiens, EFO-21, 72 h, EFO21, ovary): > 50 µM
- IC50 (cancer cell lines; Homo sapiens, EJ-28, 72 h, EJ28, bladder): > 50 µM
- IC50 (cancer cell lines; Homo sapiens, Granta-519, 72 h, GRANTA-519, hematological): 0.89 µM
- IC50 (cancer cell lines; Homo sapiens, HCT-15, 72 h, HCT15, colon): > 50 µM
- IC50 (cancer cell lines; Homo sapiens, HCT-116, 72 h, HCT116, colon): 3.2 µM
- IC50 (cancer cell lines; Homo sapiens, HEK293, 72 h, HEK293, kidney): 6.09 µM
- IC50 (cancer cell lines; Homo sapiens, HL-60, 72 h, HL-60, hematological): 3.46 µM
- IC50 (cancer cell lines; Homo sapiens, HT-29, 72 h, HT29, colon): > 50 µM
- IC50 (cancer cell lines; Homo sapiens, HT-1080, 72 h, HT1080, connective tissue): 3.72 µM
- IC50 (cancer cell lines; Homo sapiens, HeLa, endometrial): 3.1 µM
- IC50 (cancer cell lines; Homo sapiens, HepG2, 72 h, HEPG2, liver): > 50 µM
- IC50 (cancer cell lines; Homo sapiens, Hs-578T, HS578T, breast): > 50 µM
- IC50 (cancer cell lines; Homo sapiens, IGROV-1, 72 h, IGROV1, ovary): > 50 µM
- IC50 (cancer cell lines; Homo sapiens, IMR-90, 72 h, IMR90, lung): 3.47 µM
- IC50 (cancer cell lines; Homo sapiens, JEG-3, 72 h, JEG3, placenta): > 50 µM
- IC50 (cancer cell lines; Homo sapiens, JIMT-1, 72 h, JIMT1, breast): 5.55 µM
- IC50 (cancer cell lines; Homo sapiens, K562, 72 h, K-562, hematological): > 50 µM
- IC50 (cancer cell lines; Homo sapiens, Kasumi 1, 72 h, KASUMI-1, hematological): 0.18 µM
- IC50 (cancer cell lines; Homo sapiens, L-363, 72 h, L-363, hematological): 3.29 µM
- IC50 (cancer cell lines; Homo sapiens, LoVo, colon): > 50 µM
- IC50 (cancer cell lines; Homo sapiens, MCF7, 72 h, MCF7, breast): 5.68 µM
- IC50 (cancer cell lines; Homo sapiens, MDA-MB-231, 72 h, MDAMB231, breast): 2.85 µM
- IC50 (cancer cell lines; Homo sapiens, MDA-MB-435, 72 h, MDAMB435, skin): > 50 µM
- IC50 (cancer cell lines; Homo sapiens, MDA-MB-436, 72 h, MDAMB436, breast): 5.23 µM
- IC50 (cancer cell lines; Homo sapiens, MDA-MB-468, 72 h, MDAMB468, breast): > 50 µM
- IC50 (cancer cell lines; Homo sapiens, MG-63, 72 h, MG63, bone): 4.11 µM
- IC50 (cancer cell lines; Homo sapiens, MHH-ES-1, 72 h, MHHES1, bone): 3.92 µM
- IC50 (cancer cell lines; Homo sapiens, MIA PaCa-2, 72 h, MIAPACA2, pancreas): > 50 µM
- IC50 (cancer cell lines; Homo sapiens, MINO, hematological): 1.51 µM
- IC50 (cancer cell lines; Homo sapiens, MV4-11, 72 h, MV4-11, hematological): 2.25 µM
- IC50 (cancer cell lines; Homo sapiens, NCI-H23, 72 h, NCI-H23, lung): 1.68 µM
- IC50 (cancer cell lines; Homo sapiens, NCI-H82, 72 h, NCIH82, lung): > 50 µM
- IC50 (cancer cell lines; Homo sapiens, NCI-H292, 72 h, NCIH292, lung): 5.22 µM
- IC50 (cancer cell lines; Homo sapiens, NCI-H460, 72 h, NCIH460, ung): > 50 µM
- IC50 (cancer cell lines; Homo sapiens, OVCAR-3, 72 h, OVCAR3, ovary): 1.82 µM
- IC50 (cancer cell lines; Homo sapiens, OVCAR-4, 72 h, OVCAR4, ovary): 3.27 µM
- IC50 (cancer cell lines; Homo sapiens, PANC-1, 72 h, PANC1, pancreas): > 50 µM
- IC50 (cancer cell lines; Homo sapiens, PLC-PRF-5, 72 h, PLCPRF5, liver): > 50 µM
- IC50 (cancer cell lines; Homo sapiens, Panc1005, 72 h, PANC1005, pancreas): 6.31 µM
- IC50 (cancer cell lines; Homo sapiens, Ramos, hematological): 1.85 µM
- IC50 (cancer cell lines; Homo sapiens, SAOS-2, 72 h, SAOS2, bone): 1.73 µM
- IC50 (cancer cell lines; Homo sapiens, SF-268, 72 h, SF268, brain): > 50 µM
- IC50 (cancer cell lines; Homo sapiens, SF-295, 72 h, SF295, brain): > 50 µM
- IC50 (cancer cell lines; Homo sapiens, SK-BR-3, 72 h, SKBR3, breast): 3.13 µM
- IC50 (cancer cell lines; Homo sapiens, SK-HEP1, 72 h, SKHEP1, liver): 4.99 µM
- IC50 (cancer cell lines; Homo sapiens, SK-LMS-1, 72 h, SKLMS1, uterus): > 50 µM
- IC50 (cancer cell lines; Homo sapiens, SK-MEL-5, 72 h, SKMEL5, skin): > 50 µM
- IC50 (cancer cell lines; Homo sapiens, SK-MEL-28, 72 h, SKMEL28, skin): 3.1 µM
- IC50 (cancer cell lines; Homo sapiens, SK-N-AS, SKNAS, brain): 0.75 µM
- IC50 (cancer cell lines; Homo sapiens, SK-N-SH, SKNSH, brain): 0.6 µM
- IC50 (cancer cell lines; Homo sapiens, SK-OV-3, 72 h, SKOV3, ovary): 2.37 µM
- IC50 (cancer cell lines; Homo sapiens, SNB-75, 72 h, SNB75, brain): > 50 µM
- IC50 (cancer cell lines; Homo sapiens, SU-DHL10, 72 h, SU-DHL-10, hematological): 4.83 µM
- IC50 (cancer cell lines; Homo sapiens, SU-DHL-6, 72 h, SU-DHL-6, hematological): 6.01 µM
- IC50 (cancer cell lines; Homo sapiens, SW-620, 72 h, SW620, colon): > 50 µM
- IC50 (cancer cell lines; Homo sapiens, TE-671, 72 h, TE671, muscle): 3.05 µM
- IC50 (cancer cell lines; Homo sapiens, THP-1, 72 h, THP-1, hematological): 3.23 µM
- IC50 (cancer cell lines; Homo sapiens, U2OS, bone): > 50 µM
- IC50 (cancer cell lines; Homo sapiens, U-87 MG, U87MG, brain): 5.24 µM
- IC50 (cancer cell lines; Homo sapiens, UMUC3, 72 h, UMUC3, bladder): > 50 µM
- IC50 (cancer cell lines; Homo sapiens, UO-31, 72 h, UO31, kidney): > 50 µM
- IC50 (cancer cell lines; Homo sapiens, WSU-NHL, hematological): 2.55 µM
- IC50 (cancer cell lines; NCI-H358M, NCIH358M, lung): 1.63 µM
- IC50 (cancer cell lines; PBMC, hematological): > 50 µM
- IC50 (cancer cell lines; RD-ES, RDES, bone): > 50 µM
SMILES: CC[C@]1(CO)O[C@@H](n2cnc3c(N)nc(N)nc32)C[C@@H]1O [compound 25]
